Measurements as given in US5192756A, “Aminosterol antibiotic” (The Children's Hospital of Pennsylvania, priority 1992, dated 1993).
≈ marks a conversion by molar mass, not a printed value. Entries after “also recorded” stand apart in the source; their conditions may differ.

What was measured:
Candida albicans = test: Minimal inhibitory concentration, Candida albicans; assay type: cell-based; conditions: ATCC14053; Candida albicans ATCC 14053; 1/2×TSB, 37° C., 18 to 24 hours
Protocol: (§1) Squalamine was assayed in vitro against several microbial organisms to evaluate its spectrum of activity.
(§2) Minimal inhibitory concentrations for the bacteria and yeast were determined by incubating 0.9-11×10^5 colony-forming units/ml of log-phase organisms in 1/2×tryptica soy broth (TSB) with increasing concentrations of sample in static 96-2311 microtiter plates (Corning, Inc., Corning, N.Y.) at 37° C. for 18 to 24 hours. The minimal inhibitory concentration is the concentration of sample at which no growth was observed. Control incubation in the absence of […] served to set a baseline value.
(§3) Initial sample concentrations were 2 mg/ml in 250 mM sodium acetate pH 6.6, 11.2 mM HCl, except taurolithocholic acid 3-sulfate which was 2 mg/ml in 50 mM sodium acetate, and squalamine to which HCl was not added because it was acidic following the last step of purification. Spermidine HCl, taurolithocholic acid 3-sulfate, melittin, holothurin and ampicillin were purchased from Sigma (St. Louis, Miss.). CHAPS (3-[(3-cholamidopropyl)dimethylammonio]-1-propane sulfonate dihydrate) was purchased from Aldrich (Milwaukee, Wis.). Conessine was purchased from Aldrich Rare Chemicals Division (Milwaukee, Wis.). Magainin-II amide and CPF-amide were made by Magainin Pharmaceuticals, Inc. (Plymouth Meeting, Penn.). The CPF peptide used in the assay has the sequence […]-NH2. (Richter, K., et al., J. Biol. Chem. 261, 3676-3680 (1986).

Strep. faecalis = test: Minimal inhibitory concentration, Strep. faecalis; assay type: cell-based; conditions: Enterococcus faecalis, ATCC29212; Strep. faecalis ATCC 29212; 1/2×TSB, 37° C., 18 to 24 hours
Protocol: as §1, §2, §3

Serratia marcescens = test: Minimal inhibitory concentration, Serratia marcescens; assay type: cell-based; conditions: ATCC8100; Serratia marcescens ATCC 8100; 1/2×TSB, 37° C., 18 to 24 hours
Protocol: as §1, §2, §3

human erythrocytes = test: Hemolytic activity against human erythrocytes; assay type: cell-based
Protocol: Because of its structural resemblance to steroidal detergents, squalamine was assayed for its hemolytic activity against human erythrocytes.
Each sample was diluted in H2 O and was added to a 10% (vol/vol) suspension of human erythrocytes in phosphate buffered saline (PBS). Erythrocytes were collected with heparin and washed once in 1×PBS before the assay. Samples were incubated at 37° C. for ten minutes, centrifuged at 12,000× g for one minute, and the OD350 of the supernatant was measured. Addition of Triton X-100 (final concentration 0.1%) defined 100% hemolysis.

Paramecium caudatum = test: Minimal disruptive concentration, Paramecium caudatum; assay type: cell-based; conditions: 1% trypticase soy broth, light microscopy for ten minutes, read-out: Minimal Inhibitory Concentration (minimal disruptive concentration for the protozoa)
Protocol: as §1, §3
(§4) Minimal disruptive concentration (the concentration at which physical disruption of the protozoa occurred) was determined for the protozoa by adding […] of sample (in sodium acetate as above) to […] of 1% trypticase soy broth containing P. caudatum (Nasco, Fort Atkinson, Wiss,). Organisms were observed by light microscopy for ten minutes.

Proteus vulgaris = test: Minimal inhibitory concentration, Proteus vulgaris; assay type: cell-based; conditions: ATCC13315; Proteus vulgaris ATCC 13315; 1/2×TSB, 37° C., 18 to 24 hours
Protocol: as §1, §2, §3

Staph. aureus = test: Minimal inhibitory concentration, Staph. aureus; assay type: cell-based; conditions: Staphylococcus aureus, ATCC29213; Staph. aureus ATCC 29213; 1/2×TSB, 37° C., 18 to 24 hours
Protocol: as §1, §2, §3

E. coli = test: Minimal inhibitory concentration, E. coli; assay type: cell-based; conditions: Escherichia coli, ATCC25922; E. coli ATCC 25922; 1/2×TSB, 37° C., 18 to 24 hours
Protocol: as §1, §2, §3

Pseudomonas aeruginosa = test: Minimal inhibitory concentration, Pseudomonas aeruginosa; assay type: cell-based; conditions: ATCC27853; Pseudomonas aeruginosa ATCC 27853; 1/2×TSB, 37° C., 18 to 24 hours
Protocol: as §1, §2, §3

[1] = Tissue distribution of squalamine in Squalus acanthias
Protocol: The tissue distribution of squalamine was determined by extraction of freshly obtained tissues of Squalus using the same procedure as described in Example 1 for the stomach extraction. Other Squalus acanthias tissues (about 50 g of liver, gallbladder, spleen, testes, gill and intestine) were extracted as above, and purified through the C18 HPLC stage. Antimicrobial activity was detected in each tissue, and one reversed-phasefraction from each tissue was analyzed by FAB mass spectroscopy. The yield from the stomach was determined by spotting several dilutions onto a TLC plate and comparing the ninhydrin staining to a spermidine standard curve. The result agreed with the estimate obtained by NMR spectroscopy when the squalamine signal intensity was compared to that of a standard. An estimate of the yield of squalamine from other tissues was made by comparing the antimicrobial activity of reversed-phase fractions to the activity from the stomach.

E. coli D31 [2] = test: Heat resistance of antimicrobial activity (boiling); assay type: physicochemical; conditions: 0.2 μg/ml in 1×phosphate buffered saline, boiled fifteen minutes, E. coli D31 lawn
Protocol: Squalamine at 0.2 μg/ml in 1×phosphate buffered saline was boiled for fifteen minutes. A 2 μl aliquot of the sample before and after boiling was applied to a lawn of E. coli D31.

[3] = system: several microbial organisms; test: In vitro antimicrobial spectrum (bacteria, fungi, protozoa), in words; assay type: cell-based
Protocol: as §1, §2, §3, §4

E. coli D31 [4] = test: Protease resistance of antimicrobial activity (proteinase K); assay type: in vitro ADME; conditions: proteinase K 2 mg/ml, one hour, 37° C.; E. coli D31 lawn
Protocol: Proteinase K (final concentration 2 mg/ml) was added to 0.2 μg/μl squalamine or 0.8 μg/μl magainin II amide in 1×phosphate-buffered saline. After a one hour incubation at 37° C., 2 μl of each sample was applied to the lawn of E. coli D31.

Work on `CC(C)C(CC[C@@H](C)[C@H]1CC[C@H]2[C@@H]3[C@H](O)C[C@H]4C[C@@H](NCCCNCCCCN)CC[C@]4(C)[C@H]3CC[C@]12C)OS(=O)(=O)O` (stereo partly drawn) [Squalamine, 3β(N-[3-aminopropyl]-1,4-butanediamine)-7α,24.zeta.-dihydroxy-5α-cholestane 24-sulfate] yielded an MIC (Candida albicans) of 4 to 8 µg/mL (≈ 6.37 to 12.7 µM), an MIC (Strep. faecalis) of 1 to 2 µg/mL (≈ 1.59 to 3.18 µM) and an MIC (Serratia marcescens) of over 125 µg/mL. The “hemolytic activity (in words)” value (human erythrocytes; FIG. 3, 37° C., ten minutes) was “exhibits some hemolytic activity, it occurs at higher concentrations than observed for a non-selective membrane disruptive amphipathic peptide, such as mellitin”, the “antibiotic versus hemolytic concentration / selectivity (in words)” value (human erythrocytes; antibiotic activity compared with erythrocyte disruption) was “exerts antibiotic activity at concentrations below which erythrocyte disruption is observed” and the MIC (Paramecium caudatum) was 4 to 8 µg/mL (≈ 6.37 to 12.7 µM). The MIC (Proteus vulgaris) was 4 to 8 µg/mL (≈ 6.37 to 12.7 µM), the MIC (Staph. aureus) was 1 to 2 µg/mL (≈ 1.59 to 3.18 µM) and the MIC (E. coli) was 1 to 2 µg/mL (≈ 1.59 to 3.18 µM). For the same molecule, the MIC (Pseudomonas aeruginosa) was 4 to 8 µg/mL (≈ 6.37 to 12.7 µM), the “squalamine content of tissue” value ([1]; gills) was 0.5 μg/gm and the “squalamine content of tissue” value ([1]; intestine) was 0.02 μg/gm. The “squalamine content of tissue” value ([1]; liver and gall bladder) was 4-7 μg/gm, the “squalamine content of tissue” value ([1]; spleen) was “about 2 μg/gm” and the “squalamine content of tissue” value ([1]; stomach) was 1 μg/gm. The “squalamine content of tissue” value ([1]; testes) was “about 2 μg/gm”, the “antimicrobial activity after boiling” value (E. coli D31 [2]) was “retained its antimicrobial activity after boiling” and the “antimicrobial activity after boiling” value (E. coli D31 [2]; listed as squalamine) was “resistant to boiling and protease treatment”. For the same molecule, the “antibacterial activity (in words)” value ([3]; bacteria of Table I) was “compares in antibacterial potency to ampicillin”, the “antibiotic activity (in words)” value ([3]; bacteria, fungi, protozoa, concentration range studied) was “broad range of potent antibiotic activity against a plurality of microorganisms including gram-positive and gram-negative bacteria, fungi, protozoa and the like; also recorded: somewhat more potent than the Xenopus antimicrobial peptides” and the “antimicrobial activity after proteinase K digestion” value (E. coli D31 [4]) was “retained its activity; also recorded: resistant to boiling and protease treatment”.
